One series concerns resistant line P/388/VCR. The series can be described thus: Antitumour activity in vivo: increase in antitumour activity of vincristine on murine leukaemia P 388/VCR. Conditions: with vincristine […] i.p., no compound: 146 ± 2. On the set-up: species or system murine; female B6D2Fl mice. The source says:
This study was completed by an in vivo study, using a murine leukaemia resistant to vincristine (P/388/VCR) and using the compounds in association with vincristine.
The sensitive parent line P 388 (murine leukaemia) and the sub-line resistant to vincristine, P 388/VCR, were supplied by NCI (Frederick, USA). The tumour cells (10^6 cells) were inoculated on day 0 into the intraperitoneal cavity of female B6D2Fl mice (Iffa Credo, France) weighing from 18 to 20 g (groups of 8 to 10 animals).
Every day for 4 days, starting from day 1, the animals received: […]
30 to 60 minutes later, an administration by the i.p. route of 0.25 mg/kg of vincristine (used as a reference antitumour agent).
The tumour activity is expressed as follows: [formula]
The values are mean values obtained in independent experiments (± sem when n is greater than or equal to 3).

The test system of series [1] is line DC-3F/AD. The series can be described thus: Flow cytometry: intracellular accumulation of adriamycin by cells of the line DC-3F/AD. Conditions: ADR 50 μM, 5 hours. It is filed as cell-based, Chinese hamster.
The subject of a further series is Plasmodium falciparum. The conditions noted are these: resistance to chloroquine; cited from earlier work.
Series [2] relates to line DC-3F/AD. The series can be described thus: Cytotoxicity (Microculture Tetrazolium Assay): reversal of resistance to actinomycin D, line DC-3F/AD. Conditions: 4 days. It is filed as cell-based, Chinese hamster.
Where [3] appears, read: 50 mg/kg i.p. daily for 4 days, ± sem.

Consider two compounds from patent US5238936A, “Trisubstituted triazines” (Adir et Compagnie, priority 1991, dated 1993).

As for `COc1ccc(CCN(C)CCCC(C#N)(c2ccc(OC)c(OC)c2)C(C)C)cc1OC` (stereo not shown) [verapamil, reference compound], the values for the T/C % in the series on resistant line P/388/VCR (setting [3]) and with resistant line P/388/VCR (75 mg/kg i.p. daily for 4 days) were 164% and 177%, respectively. Moreover, the “VAR-MEAN (increase in ADR fluorescence), line DC-3F/AD” value with line DC-3F/AD [1] (1.0 μM compound) amounted to 2.1; in the series on line DC-3F/AD [1] (5.0 μM compound), 5.6; with line DC-3F/AD [1] (10 μM compound), 8.9; in the series with line DC-3F/AD [1] ([…] compound), 4.0. For the same compound, the “sensitivity of a chloroquine-resistant line” value with Plasmodium falciparum was “restores the sensitivity of a resistant line”.

`C=CCNc1nc(NCC)nc(N2CCC(NCC3c4ccccc4COc4ccccc43)CC2)n1` (racemic) [Example 29, 2-allylamino-4-ethylamino-6-{4-[((R,S)-6,11-dihydrodibenzo[b,e]oxepin-11-yl)methylamino]piperidin-1-yl}-1,3,5-triazine]: the T/C % is 171 ± 6% with resistant line P/388/VCR (setting [3]) and 185 ± 7% in the series on resistant line P/388/VCR (100 mg/kg i.p. daily for 4 days, ± sem). The “VAR-MEAN (increase in ADR fluorescence), line DC-3F/AD” value with line DC-3F/AD [1] (1.0 μM compound) is on record as 6.4; in the series with line DC-3F/AD [1] (5.0 μM compound) it was 18.0; in the series with line DC-3F/AD [1] (10 μM compound) it was 21.8; in the series with line DC-3F/AD [1] ([…] compound) it was 13.3. Moreover, the “Reversion factors (cytotoxicity) with the line DC-3F/AD” value in the series with line DC-3F/AD [2] (0.5 μM compound) is recorded as 1.7; in the series on line DC-3F/AD [2] (1 μM compound) it was 33.8; in the series with line DC-3F/AD [2] (5 μM compound), 1327.5.
